{"source": "patent US6403343B2", "about": "“Method of producing a taxane-type diterpene and a method of obtaining cultured cells which produce the taxane-type dilterpene at a high rate” (Mitsui Chemicals, Inc., priority 1993, dated 2002)", "format_in_all_cases": "cell-based", "key": {"[1]": {"test_system": "cultured cells of Taxus baccata LINN", "assay": "Taxane-type diterpene yield and cell yield, shake culture of Taxus baccata cells with a jasmonic acid (or jasmone) added"}, "[2]": {"test_system": "cultured cells of Taxus baccata LINN, layer of 1.07 g/ml or less", "assay": "Same culture using cells of the specific gravity layer of 1.07 g/ml or less (Ficoll), jasmonic acids added", "conditions": "250 μM added on 14th day, 7 more days; cells of layer of 1.07 g/ml or less", "protocol": "(§1) The cells with accelerated growth rate obtained by the method of Example 1 were fractionated firstly by a stainless steel mesh and cell clusters having the size of 250-840 μm were obtained. A medium having a specific gravity of 1.07 (g/ml) was produced by the use of Ficoll and the above-mentioned cells were layered over it and centrifuged at 700 rpm for 6 minutes. The cells were fractionated into two layers according to the difference of the specific gravity. The cells contained in the layer of 1.07 g/ml or less were fractionated and washed with 2% sucrose solution three times or more, to wash off Ficoll. After the washing, 1 g (fresh weight) of the cells was transferred to an Erlenmeyer flask containing 20 ml of liquid Woody Plant Medium and shake culture was carried out at 25° C. for 14 days. […] After completing the culture, the procedure of Example 1 was carried out.\nas §1, with “growth rates” for “growth rate”, “Example 8” for “Example 1”, “was inoculated” for “was transferred”\nas §1, with “Example 15” for “Example 1”, “was inoculated” for “was transferred”"}, "[3]": {"test_system": "cultured cells of Taxus brevifolia NUTT", "assay": "Taxane yield, Taxus brevifolia cultured cells with jasmonic acids added", "conditions": "250 μM added on 14th day, 7 more days", "protocol": "After completing the culture, the procedure of Example 1 was carried out.\nAfter completing the culture, the procedure of Example 8 was carried out.\nAfter completing the culture, the procedure of Example 15 was carried out."}, "[4]": {"test_system": "cultured cells of T. media", "assay": "Taxane yield, T. media cultured cells with jasmonic acids added", "conditions": "250 μM added on 14th day, 7 more days", "protocol": "The procedure of Example 6 was carried out except that cultured cells of T. media were used.\nThe procedure of Example 13 was carried out except that cultured cells of T. media were used.\nThe procedure of Example 22 was carried out except that cultured cells of T. media were used."}, "[5]": {"conditions": "0.01 μM added on 14th day, 7 more days"}, "[6]": {"conditions": "0.1 μM added on 14th day, 7 more days"}, "[7]": {"conditions": "1 μM added on 14th day, 7 more days"}, "[8]": {"conditions": "10 μM added on 14th day, 7 more days"}, "[9]": {"conditions": "25 μM added 4 times every two days from 7th day, total 100 μM"}, "[10]": {"conditions": "100 μM added on 7th day, 14 more days"}, "[11]": {"conditions": "100 μM added on 14th day, 7 more days"}, "[12]": {"conditions": "100 μM added on first day, 20 more days"}, "[13]": {"conditions": "250 μM added on 14th day, 7 more days"}, "[14]": {"conditions": "500 μM added on 14th day, 7 more days"}, "[15]": {"conditions": "1000 μM added on 14th day, 7 more days"}}, "data": [{"smiles": "CC/C=C\\C[C@H]1[C@@H](CC(=O)OC)CC[C@@H]1O", "note": "[methyl cucurbate]", "values": [{"measurement": "cell yield", "setting": "[1]; [5]", "result": 11.3, "unit": "g/L"}, {"measurement": "yield of baccatin III", "setting": "[1]; [5]", "result": 0.3, "unit": "mg/L"}, {"measurement": "yield of cephalomannine", "setting": "[1]; [5]", "result": 2.6, "unit": "mg/L"}, {"measurement": "yield of taxol", "setting": "[1]; [5]", "result": 4.3, "unit": "mg/L"}, {"measurement": "cell yield", "setting": "[1]; [6]", "result": 11.1, "unit": "g/L"}, {"measurement": "yield of baccatin III", "setting": "[1]; [6]", "result": 0.3, "unit": "mg/L"}, {"measurement": "yield of cephalomannine", "setting": "[1]; [6]", "result": 3.1, "unit": "mg/L"}, {"measurement": "yield of taxol", "setting": "[1]; [6]", "result": 5.4, "unit": "mg/L"}, {"measurement": "cell yield", "setting": "[1]; [7]", "result": 10.4, "unit": "g/L"}, {"measurement": "yield of baccatin III", "setting": "[1]; [7]", "result": 0.3, "unit": "mg/L"}, {"measurement": "yield of cephalomannine", "setting": "[1]; [7]", "result": 3.3, "unit": "mg/L"}, {"measurement": "yield of taxol", "setting": "[1]; [7]", "result": 6.7, "unit": "mg/L"}, {"measurement": "cell yield", "setting": "[1]; [8]", "result": 10.4, "unit": "g/L"}, {"measurement": "yield of baccatin III", "setting": "[1]; [8]", "result": 0.5, "unit": "mg/L"}, {"measurement": "yield of cephalomannine", "setting": "[1]; [8]", "result": 4.0, "unit": "mg/L"}, {"measurement": "yield of taxol", "setting": "[1]; [8]", "result": 11.3, "unit": "mg/L"}, {"measurement": "cell yield", "setting": "[1]; [9]", "result": 10.5, "unit": "g/L"}, {"measurement": "yield of baccatin III", "setting": "[1]; [9]", "result": 14.6, "unit": "mg/L"}, {"measurement": "yield of cephalomannine", "setting": "[1]; [9]", "result": 4.1, "unit": "mg/L"}, {"measurement": "yield of taxol", "setting": "[1]; [9]", "result": 18.2, "unit": "mg/L"}, {"measurement": "cell yield", "setting": "[1]; [10]", "result": 9.5, "unit": "g/L"}, {"measurement": "yield of baccatin III", "setting": "[1]; [10]", "result": 8.4, "unit": "mg/L"}, {"measurement": "yield of cephalomannine", "setting": "[1]; [10]", "result": 4.1, "unit": "mg/L"}, {"measurement": "yield of taxol", "setting": "[1]; [10]", "result": 16.8, "unit": "mg/L"}, {"measurement": "cell yield", "setting": "[1]; [11]", "result": 9.8, "unit": "g/L"}, {"measurement": "yield of baccatin III", "setting": "[1]; [11]", "result": 7.2, "unit": "mg/L"}, {"measurement": "yield of cephalomannine", "setting": "[1]; [11]", "result": 4.4, "unit": "mg/L"}, {"measurement": "yield of taxol", "setting": "[1]; [11]", "result": 15.7, "unit": "mg/L"}, {"measurement": "cell yield", "setting": "[1]; [12]", "result": 6.1, "unit": "g/L"}, {"measurement": "yield of baccatin III", "setting": "[1]; [12]", "result": 0.8, "unit": "mg/L"}, {"measurement": "yield of cephalomannine", "setting": "[1]; [12]", "result": 2.8, "unit": "mg/L"}, {"measurement": "yield of taxol", "setting": "[1]; [12]", "result": 3.9, "unit": "mg/L"}, {"measurement": "cell yield", "setting": "[1]; [13]", "result": 9.6, "unit": "g/L"}, {"measurement": "yield of baccatin III", "setting": "[1]; [13]", "result": 10.6, "unit": "mg/L"}, {"measurement": "yield of cephalomannine", "setting": "[1]; [13]", "result": 5.3, "unit": "mg/L"}, {"measurement": "yield of taxol", "setting": "[1]; [13]", "result": 17.7, "unit": "mg/L"}, {"measurement": "cell yield", "setting": "[1]; [14]", "result": 9.3, "unit": "g/L"}, {"measurement": "yield of baccatin III", "setting": "[1]; [14]", "result": 12.0, "unit": "mg/L"}, {"measurement": "yield of cephalomannine", "setting": "[1]; [14]", "result": 3.0, "unit": "mg/L"}, {"measurement": "yield of taxol", "setting": "[1]; [14]", "result": 13.1, "unit": "mg/L"}, {"measurement": "cell yield", "setting": "[1]; [15]", "result": 5.7, "unit": "g/L"}, {"measurement": "yield of baccatin III", "setting": "[1]; [15]", "result": 1.2, "unit": "mg/L"}, {"measurement": "yield of cephalomannine", "setting": "[1]; [15]", "result": 2.8, "unit": "mg/L"}, {"measurement": "yield of taxol", "setting": "[1]; [15]", "result": 4.2, "unit": "mg/L"}, {"measurement": "cell yield", "setting": "[2]", "result": 9.7, "unit": "g/L"}, {"measurement": "yield of baccatin III", "setting": "[2]", "result": 22.2, "unit": "mg/L"}, {"measurement": "yield of cephalomannine", "setting": "[2]", "result": 3.8, "unit": "mg/L"}, {"measurement": "yield of taxol", "setting": "[2]", "result": 29.7, "unit": "mg/L"}, {"measurement": "cell yield", "setting": "[3]", "result": 11.0, "unit": "g/L"}, {"measurement": "yield of baccatin III", "setting": "[3]", "result": 1.2, "unit": "mg/L"}, {"measurement": "yield of cephalomannine", "setting": "[3]", "result": 0.3, "unit": "mg/L"}, {"measurement": "yield of taxol", "setting": "[3]", "result": 1.3, "unit": "mg/L"}, {"measurement": "cell yield", "setting": "[4]", "result": 12.3, "unit": "g/L"}, {"measurement": "yield of baccatin III", "setting": "[4]", "result": 5.2, "unit": "mg/L"}, {"measurement": "yield of cephalomannine", "setting": "[4]", "result": 0.2, "unit": "mg/L"}, {"measurement": "yield of taxol", "setting": "[4]", "result": 3.9, "unit": "mg/L"}]}]}
